Results on 1 molecule are retold here after patent US20080081781A1, “Methods and compositions for the treatment of metabolic syndrome” (priority 2004, published 2008).

Series [1] is described as follows: in vivo. As to conditions: beagle, dog, iv, 100 mg/kg. As for the experimental part: Four beagles were injected intravenously with 100 mg/kg of berberine. Using a two compartment model, the pharmacokinetic parameter estimates were as follows: […]
Series [2] has as its system PPAR-r mRNA. In words: PPAR-r mRNA expression in liver cells. The note with it: liver cells (data not shown). In kind it is cell-based. An excerpt: The effect of berberine on InsR was further confirmed in another hepatoma cell line, Bel-7402 […] (FIG. 18). […] The expression of PPAR-r mRNA in liver cells was not changed by berberine (data not shown).
A short description of series [3]: Toxicity analysis (LD50) in mice. The note with it: mouse, in vivo. As for the experimental part: Rats and mice were administered berberine through a variety of techniques, including orally, through subcutaneous injection, peritoneal injection and intravenous injection.
Series [4] can be described thus: in vivo. As to conditions: rabbit, 50 mg/kg. As for the experimental part: 50 mg/kg of berberine was administered through stomach infusion to six rabbits. Serum samples were taken at various points after administration and RP-HPLC was used to measure the drug concentration.

In series [1], `COc1ccc2cc3[n+](cc2c1OC)CCc1cc2c(cc1-3)OCO2` [berberine] showed an AUC of 1.98 ± 1.14 µg·h/mL, a clearance of 1010 mL/min and a half-life of 12.6 ± 8.83 h. In addition, the “expression of PPAR-r mRNA” value in series [2] is given as “not changed”. The same molecule returned an LD50 in series [3] (intraperitoneal, peritoneal injection) of 30 to 32.2 mg/kg. In series [3] (intravenous injection), this molecule gave an LD50 of 7.6 to 10.2 mg/kg. Besides, the LD50 in series [3] (sc, subcutaneous injection) lay in the range of 13.9 to 20 mg/kg. In series [4], the “peak time Tpeak” value was found to be 0.63 ± 0.25 h. In series [4] (po), this molecule gave an area under the curve (AUC) of 0.492 ± 0.295 µg·h/mL, a Cmax of 0.0927 ± 0.0509 µg/mL and a half-life of 3.11 ± 0.58 h.

What is called AUC is the area under the concentration-time curve, a measure of exposure. Higher therefore signals more exposure. The term clearance denotes a measure of how efficiently the substance is removed, as volume per time. A low value points to a low capacity for elimination. For orientation: half-life means how long it takes for the measured level to halve. The low end stands for rapid decline, the high end for slow decline. The term LD50 denotes the dose at which mortality reaches 50%. A high value points to lower toxicity. By Cmax is commonly meant the peak of the concentration-time curve.
